The source of these data is article PMC3833348 (MedChemComm, 2013).

Data set [1] can be described thus: Solubility in aqueous buffer. The data set is classed as physicochemical. The following applies: as compared to Aba-C10.
The target in data set [2] is T1, P-gp (Homo sapiens, UniProt P08183). The data set can be described thus: Substrate accumulation assays in MCF-7/DX1 cells. The data set is classed as cell-based.
Data set [3] concerns the target T1, P-gp. The data set can be described thus: Inhibition of P-gp-mediated efflux of NBD-Aba in hCMEC/D3 cells. The data set is classed as cell-based.
The test system of data set [4] is P-gp. The following applies: cited from earlier work.

T1 sequence (P08183 whole entry): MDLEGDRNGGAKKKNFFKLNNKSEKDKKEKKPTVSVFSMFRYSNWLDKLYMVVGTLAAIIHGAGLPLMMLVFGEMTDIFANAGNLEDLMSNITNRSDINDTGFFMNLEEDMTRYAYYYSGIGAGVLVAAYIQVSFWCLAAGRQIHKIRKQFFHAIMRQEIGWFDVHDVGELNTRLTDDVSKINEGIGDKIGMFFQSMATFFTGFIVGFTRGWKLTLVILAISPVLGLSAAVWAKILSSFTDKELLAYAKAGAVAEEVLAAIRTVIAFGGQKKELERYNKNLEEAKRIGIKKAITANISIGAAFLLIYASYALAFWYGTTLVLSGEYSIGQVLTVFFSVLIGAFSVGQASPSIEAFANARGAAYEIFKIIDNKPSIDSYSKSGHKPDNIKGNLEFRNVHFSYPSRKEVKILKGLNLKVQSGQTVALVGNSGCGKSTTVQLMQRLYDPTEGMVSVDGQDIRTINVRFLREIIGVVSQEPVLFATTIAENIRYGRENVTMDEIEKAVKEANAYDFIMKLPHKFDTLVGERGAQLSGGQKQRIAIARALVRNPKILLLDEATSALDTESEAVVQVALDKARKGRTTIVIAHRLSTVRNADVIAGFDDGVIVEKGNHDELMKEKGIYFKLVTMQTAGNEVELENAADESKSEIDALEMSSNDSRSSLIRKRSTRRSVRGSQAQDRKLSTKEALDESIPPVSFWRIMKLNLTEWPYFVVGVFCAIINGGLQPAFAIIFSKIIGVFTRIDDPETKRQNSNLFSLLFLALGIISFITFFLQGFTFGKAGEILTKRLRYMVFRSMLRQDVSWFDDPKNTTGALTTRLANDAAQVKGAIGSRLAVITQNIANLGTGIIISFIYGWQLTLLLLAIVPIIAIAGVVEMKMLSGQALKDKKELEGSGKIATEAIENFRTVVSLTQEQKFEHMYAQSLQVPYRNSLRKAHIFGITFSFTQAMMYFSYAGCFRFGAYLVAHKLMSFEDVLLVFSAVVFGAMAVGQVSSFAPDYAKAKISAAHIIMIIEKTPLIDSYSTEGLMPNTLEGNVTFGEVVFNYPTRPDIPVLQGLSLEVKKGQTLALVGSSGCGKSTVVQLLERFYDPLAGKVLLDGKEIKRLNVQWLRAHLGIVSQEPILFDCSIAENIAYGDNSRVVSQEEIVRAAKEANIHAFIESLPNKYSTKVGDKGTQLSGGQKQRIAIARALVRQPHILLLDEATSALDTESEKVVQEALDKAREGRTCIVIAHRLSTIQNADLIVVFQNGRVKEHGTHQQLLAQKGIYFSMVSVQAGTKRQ

On to `Nc1nc(NC2CC2)c2ncn([C@H]3C=C[C@@H](COC(=O)CCCCCCCCC(=O)OC[C@@H]4C=C[C@H](n5cnc6c(NC7CC7)nc(N)nc65)C4)C3)c2n1` [Aba-C8], for which the “Solubility in aqueous buffer” value in data set [1] is given as “more favorable solubility”. Besides, at P-gp [2] (NBD-Aba as substrate), the “Fold decrease of potency in MCF-7/DX1 cells versus 12D7-MDR” value is listed as around 6 fold and the “Fold decrease of potency in MCF-7/DX1 cells versus hCMEC/D3” value is recorded as “about 3 fold”. Besides, the “Inhibition of efflux of each of the substrates in MCF-7/DX1 cells” value at P-gp [2] (substrates BODIPY-prazosin, doxorubicin, [3H]-daunomycin and NBD-Aba) is on record as “effectively inhibit efflux”.

With `Nc1nc(NC2CC2)c2ncn([C@H]3C=C[C@@H](COC(=O)CCCCCCCCCCC(=O)OC[C@@H]4C=C[C@H](n5cnc6c(NC7CC7)nc(N)nc65)C4)C3)c2n1` [Aba-C10], the “Fold more potent than monomeric abacavir” value on P-gp [3] was “greater than 500 fold”.

In the case of `Nc1nc(NC2CC2)c2ncn([C@H]3C=C[C@@H](CO)C3)c2n1` [abacavir, reference compound], the “Fold increase in brain levels, P-gp-null mice versus wild-type mice” value in the data set with P-gp [4] was 20 fold. Moreover, on P-gp [2] (up to a concentration of 100 µM, data not shown), the “Effect on transport in MCF-7/DX1 cells” value is “no effect on transport”.
